Laboratory results as given in ChEMBL document CHEMBL1151928, “Identification of Hsp70 modulators through modeling of the substrate binding domain” (Bioorg Med Chem Lett, 2009).
Activity calls are given as the source filed them. The calls are words filed in the database; no cut-off is given here.

Columns and labels:
Hsp70 Ssa1p [1] = assay: Activation of yeast Hsp70 Ssa1p ATP hydrolysis activity at 300 uM in presence of ALLLSAPRR peptide; conditions: Saccharomyces cerevisiae
Hsp70 Ssa1p [2] = assay: Activation of yeast Hsp70 Ssa1p ATP hydrolysis activity at 300 uM; conditions: Saccharomyces cerevisiae

With `CCOCCCN(C(C)=O)[C@@H](CC(C)C)C(=O)N[C@@H](CC(C)C)C(=O)NCCN1CCOCC1` the Activity (Hsp70 Ssa1p [1]) was “Active” and the Activity (Hsp70 Ssa1p [2]) was “Active”.
